# Assay results published in ChEMBL document CHEMBL3885881, “DrugMatrix”.
# Species: Rattus norvegicus
# Test: DrugMatrix - Regimen: Daily Repeat
# Assay type: toxicity, organism-based, Sprague-Dawley
# Set-up: regimen Daily Repeat, gender Male, age 6-8 weeks
# Conditions: in vivo, iv, vehicle 100 % SALINE; for ABSOLUTE BASOPHIL / ABSOLUTE EOSINOPHIL / ABSOLUTE LYMPHOCYTE / ABSOLUTE MONOCYTE / ABSOLUTE SEGMENTED NEUTROPHIL / BASOPHIL / EOSINOPHIL / ERYTHROCYTE COUNT / HEMATOCRIT / HEMOGLOBIN / LEUKOCYTE COUNT / LYMPHOCYTE / MEAN CORPUSCULAR HEMOGLOBIN / MEAN CORPUSCULAR HEMOGLOBIN CONCENTRATION / MEAN CORPUSCULAR VOLUME / MONOCYTE / NEUTROPHIL / NUCLEATED RED BLOOD CELLS / PLATELET COUNT: tissue Blood; for ALANINE AMINOTRANSFERASE / ALBUMIN / ALKALINE PHOSPHATASE / ASPARTATE AMINOTRANSFERASE / BLOOD UREA NITROGEN / CARBON DIOXIDE / CHLORIDE / CHOLESTEROL / CREATINE PHOSPHOKINASE / CREATININE / GLUCOSE / LACTATE DEHYDROGENASE / LIPASE / PHOSPHORUS / POTASSIUM / SODIUM / TOTAL BILIRUBIN / TOTAL PROTEIN / URIC ACID: tissue Plasma
# [1] = 0 mg/kg, 72 h, dose level Control, time 3 day
# [2] = 0 mg/kg, 120 h, dose level Control, time 5 day
# [3] = 12 mg/kg, 72 h, dose level High, time 3 day
smiles,measurement,setting,value
Cc1c(N)nc([C@H](CC(N)=O)NC[C@H](N)C(N)=O)nc1C(=O)N[C@H](C(=O)N[C@H](C)[C@@H](O)[C@H](C)C(=O)N[C@H](C(=O)NCCc1nc(-c2nc(C(=O)NCCC[S+](C)C)cs2)cs1)[C@@H](C)O)[C@@H](O[C@@H]1O[C@@H](CO)[C@@H](O)[C@H](O)[C@@H]1O[C@H]1O[C@H](CO)[C@@H](O)[C@H](OC(N)=O)[C@@H]1O)c1c[nH]cn1.[Br-] [BLEOMYCIN A2],ABSOLUTE BASOPHIL,[1],0 CELLS/uL
same,ABSOLUTE EOSINOPHIL,[1],33.67 CELLS/uL
same,ABSOLUTE LYMPHOCYTE,[1],12123.5 CELLS/uL
same,ABSOLUTE MONOCYTE,[1],243.5 CELLS/uL
same,ABSOLUTE SEGMENTED NEUTROPHIL,[1],1282.67 CELLS/uL
same,BASOPHIL,[1],0%
same,EOSINOPHIL,[1],0.33%
same,ERYTHROCYTE COUNT,[1],5.18 x10E6/uL
same,HEMATOCRIT,[1],32.63%
same,HEMOGLOBIN,[1],12.87 G/DL
same,LEUKOCYTE COUNT,[1],13.68 x10E3/uL
same,LYMPHOCYTE,[1],88.67%
same,MEAN CORPUSCULAR HEMOGLOBIN,[1],24.98 pg
same,MEAN CORPUSCULAR HEMOGLOBIN CONCENTRATION,[1],39.48 G/DL
same,MEAN CORPUSCULAR VOLUME,[1],63.23 fL
same,MONOCYTE,[1],1.83%
same,NEUTROPHIL,[1],9.17%
same,NUCLEATED RED BLOOD CELLS,[1],0.17 /100WBC
same,PLATELET COUNT,[1],1114.5 x10E3/uL
same,ALANINE AMINOTRANSFERASE,[1],46.17 u/L
same,ALBUMIN,[1],4.15 G/DL
same,ALKALINE PHOSPHATASE,[1],374.67 u/L
same,ASPARTATE AMINOTRANSFERASE,[1],89.33 u/L
same,BLOOD UREA NITROGEN,[1],14.83 mg/dL
same,CARBON DIOXIDE,[1],25.67 mmol/L
same,CHLORIDE,[1],101.17 MEQ/L
same,CHOLESTEROL,[1],63.5 mg/dL
same,CREATINE PHOSPHOKINASE,[1],494.67 u/L
same,CREATININE,[1],0.17 mg/dL
same,GLUCOSE,[1],163 mg/dL
same,LACTATE DEHYDROGENASE,[1],269.33 u/L
same,LIPASE,[1],10.67 u/L
same,PHOSPHORUS,[1],11.27 mg/dL
same,POTASSIUM,[1],5.85 MEQ/L
same,SODIUM,[1],141.68 MEQ/L
same,TOTAL BILIRUBIN,[1],0.18 mg/dL
same,TOTAL PROTEIN,[1],5.87 G/DL
same,URIC ACID,[1],1.28 mg/dL
same,ABSOLUTE BASOPHIL,[2],0 CELLS/uL
same,ABSOLUTE EOSINOPHIL,[2],24.67 CELLS/uL
same,ABSOLUTE LYMPHOCYTE,[2],11832.83 CELLS/uL
same,ABSOLUTE MONOCYTE,[2],279.67 CELLS/uL
same,ABSOLUTE SEGMENTED NEUTROPHIL,[2],1446.17 CELLS/uL
same,BASOPHIL,[2],0%
same,EOSINOPHIL,[2],0.17%
same,ERYTHROCYTE COUNT,[2],5.61 x10E6/uL
same,HEMATOCRIT,[2],35.02%
same,HEMOGLOBIN,[2],13.82 G/DL
same,LEUKOCYTE COUNT,[2],13.58 x10E3/uL
same,LYMPHOCYTE,[2],87.67%
same,MEAN CORPUSCULAR HEMOGLOBIN,[2],24.68 pg
same,MEAN CORPUSCULAR HEMOGLOBIN CONCENTRATION,[2],39.5 G/DL
same,MEAN CORPUSCULAR VOLUME,[2],62.42 fL
same,MONOCYTE,[2],2%
same,NEUTROPHIL,[2],10.17%
same,NUCLEATED RED BLOOD CELLS,[2],0 /100WBC
same,PLATELET COUNT,[2],1178.17 x10E3/uL
same,ALANINE AMINOTRANSFERASE,[2],52.83 u/L
same,ALBUMIN,[2],4.12 G/DL
same,ALKALINE PHOSPHATASE,[2],370 u/L
same,ASPARTATE AMINOTRANSFERASE,[2],100.5 u/L
same,BLOOD UREA NITROGEN,[2],15.17 mg/dL
same,CARBON DIOXIDE,[2],28.83 mmol/L
same,CHLORIDE,[2],101 MEQ/L
same,CHOLESTEROL,[2],69.5 mg/dL
same,CREATINE PHOSPHOKINASE,[2],488.67 u/L
same,CREATININE,[2],0.23 mg/dL
same,GLUCOSE,[2],165 mg/dL
same,LACTATE DEHYDROGENASE,[2],502.17 u/L
same,LIPASE,[2],11 u/L
same,PHOSPHORUS,[2],11.7 mg/dL
same,POTASSIUM,[2],5.85 MEQ/L
same,SODIUM,[2],142.45 MEQ/L
same,TOTAL BILIRUBIN,[2],0.18 mg/dL
same,TOTAL PROTEIN,[2],5.85 G/DL
same,URIC ACID,[2],1.43 mg/dL
same,ABSOLUTE BASOPHIL,[3],0 CELLS/uL
same,ABSOLUTE EOSINOPHIL,[3],0 CELLS/uL
same,ABSOLUTE LYMPHOCYTE,[3],10537 CELLS/uL
same,ABSOLUTE MONOCYTE,[3],346.67 CELLS/uL
same,ABSOLUTE SEGMENTED NEUTROPHIL,[3],2083 CELLS/uL
same,BASOPHIL,[3],0%
same,EOSINOPHIL,[3],0%
same,ERYTHROCYTE COUNT,[3],6.18 x10E6/uL
same,HEMATOCRIT,[3],38.57%
same,HEMOGLOBIN,[3],15.13 G/DL
same,LEUKOCYTE COUNT,[3],12.97 x10E3/uL
same,LYMPHOCYTE,[3],81.67%
same,MEAN CORPUSCULAR HEMOGLOBIN,[3],24.5 pg
same,MEAN CORPUSCULAR HEMOGLOBIN CONCENTRATION,[3],39.23 G/DL
same,MEAN CORPUSCULAR VOLUME,[3],62.37 fL
same,MONOCYTE,[3],2.67%
same,NEUTROPHIL,[3],15.67%
same,NUCLEATED RED BLOOD CELLS,[3],0 /100WBC
same,PLATELET COUNT,[3],1055.67 x10E3/uL
same,ALANINE AMINOTRANSFERASE,[3],38 u/L
same,ALBUMIN,[3],3.8 G/DL
same,ALKALINE PHOSPHATASE,[3],233.67 u/L
same,ASPARTATE AMINOTRANSFERASE,[3],110 u/L
same,BLOOD UREA NITROGEN,[3],10.33 mg/dL
same,CARBON DIOXIDE,[3],27.67 mmol/L
same,CHLORIDE,[3],100.33 MEQ/L
same,CHOLESTEROL,[3],56.33 mg/dL
same,CREATINE PHOSPHOKINASE,[3],923.67 u/L
same,CREATININE,[3],0.12 mg/dL
same,GLUCOSE,[3],136.67 mg/dL
same,LACTATE DEHYDROGENASE,[3],439.67 u/L
same,LIPASE,[3],9.67 u/L
same,PHOSPHORUS,[3],10.5 mg/dL
same,POTASSIUM,[3],5.86 MEQ/L
same,SODIUM,[3],140.77 MEQ/L
same,TOTAL BILIRUBIN,[3],0.13 mg/dL
same,TOTAL PROTEIN,[3],5.47 G/DL
same,URIC ACID,[3],1.3 mg/dL
